These results are taken from patent US7347970B2, “Biocides based on silanol terminated silanes and siloxanes” (University of Florida Research Foundation, Inc., priority 2004, dated 2008).

What all share (type): cell-based
The test system of assay [1] is E. coli. The experiment in a line: Antimicrobial (bioactivity) test, plate counts and dilution method, log reduction. Particulars: for bioactivity against E. coli: with cosolvent propylene glycol n-propyl ether, FIG. 6. The procedure: Bioactivity (toxicity) tests were performed using silanols according to the invention along with some controls. E. coli was provided as the target microorganism. […] 20th ed. L. S. Clesceri, A. E. Greenberg, A. D. Eaton (eds.) Washington, D.C. was employed to measure the number of viable cells after the bioactivity tests. The collected sample underwent serial dilutions in which the original sample collected was diluted in a series of dilution tubes. Each succeeding dilution tube will have only one-tenth the number of microbial cells as the preceding tube. Then the samples of the dilution were used to inoculate Petri plates containing solid medium. The sample on the plates was plated evenly over the surface of the solid medium. Colonies grew only on surface of medium and could be counted. This count was used to estimate the number of viable bacterial in the original sample.
Log reduction represents the number of E. coli eliminated through the silanol or other chemical treatment. The experiments were operated for an hour with proper stirring in aqueous solution. […] Log reduction 8 represents the detection limit for the experiment performed, and thus represents complete removal.
(§1) Nine (9) ml of D.I. water was mixed with 1 ml of E. coli solution, and antimicrobial materials for 1 hr with magnetic stirring, then sampling was carried out. The plate counting method as described above was employed to measure the viability of the E. coli.

The subject of assay [2] is E. coli. Kind of assay: Minimum lethal concentration (MLC) against E. coli. Particulars: for minimum lethal concentration compared with corresponding alcohol: E. coli, FIG. 10. On the procedure: The minimum lethal concentration against E. coli for each silanol is defined as the maximum dilution of the product that will kill a test organism. […] The antimicrobial effect increased with an increase in the number of the alkyl chain of the substituent R, in the order of methyl<ethyl<n-propyl<n-butyl as shown FIG. 5.
Antimicrobial test was carried out to compare the bioactivity of fragrance ingredient of alcohols and the corresponding silanols according to the invention against E. coli. Alcohols, 2-methyl-1-phenyl-2-propanol corresponding to benzyldimethylsilanol, 2-methyl-4-phenyl-2-butanol corresponding to phenethyldimethylsilanol, were obtained from Sigma-Aldrich, and the silanols were prepared by the hydrolysis of chlorosilane.
as §1

The subject of assay [3] is E. coli. The experiment in a line: Antimicrobial (bioactivity) test, plate counts and dilution method, log reduction. Particulars: 0.2 (% g/g), 10 minute mixing, FIG. 3; below detection limit.
Where [4] appears, read: 2 (% g/g), FIG. 4, complete removal.
The mark [5] stands for this setting: 0.1% g/g with cosolvent propylene glycol n-propyl ether, FIG. 6/7.

With `C[Si](C)(O)CCC(F)(F)F` [3,3,3-trifluoropropyldimethylsilanol], in the assay on E. coli [1] (setting [4]), the “log reduction of E. coli” value is “eight”.

On to `C[Si](C)(O)Cc1ccccc1` [Benzyldimethylsilanol (UF), Benzyldimethylsilanol], for which the “minimum lethal concentration compared with corresponding alcohol” value in the assay with E. coli [2] was “lower than their corresponding alcohols”.

With `C[Si]1(C)O[Si](C)(C)O[Si](C)(C)O[Si](C)(C)O1` [D4, octamethylcyclotetrasiloxane, reference compound], in the assay with E. coli [1], the “bioactivity against E. coli” value was “did not provide significant bioactivity”.

On to `C[Si](C)(O)CCc1ccccc1` [Phenethyldimethylsilanol (UF), Phenethyldimethylsilanol], for which the “minimum lethal concentration compared with corresponding alcohol” value in the assay with E. coli [2] is “lower than their corresponding alcohols”.

On to `C[Si](C)(O)c1ccccc1` [Phenyldimethylsilanol], for which, in the assay with E. coli [1] (setting [4]), the “log reduction of E. coli” value is “eight”.

Turning to `CC(C)(C)O` [t-butanol, reference compound], in the assay on E. coli [1], the “bioactivity against E. coli” value is “did not provide significant bioactivity”.

With `CC(C)(C)[Si](C)(C)O` [t-butyldimethylsilanol], the “log reduction of E. coli” value in the assay with E. coli [1] (setting [5]) was determined as 8 log.

Turning to `CC[Si](O)(CC)CC` [triethylsilanol], the “reduction of E. coli” value with E. coli [3] was “more than eight”. The “antimicrobial effect by minimum lethal concentration” value in the assay on E. coli [2] (FIG. 5) is on record as “strong antimicrobial effect”. Moreover, the “log reduction of E. coli” value is given as 8 log in the assay on E. coli [1] (setting [5]); “eight” in the assay on E. coli [1] (setting [4]); 8 log in the assay on E. coli [1] (2.5 (% g/g), FIG. 2, 8 = detection limit). The “antimicrobial effect (log reduction of E. coli)” value with E. coli [1] (10 (% g/g), one hour stirring in aqueous solution, FIG. 1) is “high antimicrobial effect”.

In the case of `C[Si](C)(C)O` [trimethyisilanol], the “log reduction of E. coli” value in the assay on E. coli [1] (setting [5]) came out at 8 log.

Take `C=C[Si](C)(C)O` [vinyldimethylsilanol]: the “log reduction of E. coli” value in the assay on E. coli [1] (setting [4]) is reported as “eight”.

Turning to diphenylmethylsilanol, in the assay on E. coli [1] (setting [5]), the “log reduction of E. coli” value was found to be 8 log.

Consider vinylphenylmethylsilanol, for which the “log reduction of E. coli” value in the assay with E. coli [1] (setting [4]) was “eight”.
